Experimental data: patent US10654890B2, “Cyclic peptide derivative, method for preparing same and composition thereof” (priority 2014, dated 2020)

Legend:
[1] = test system: human liver cancer cells (HepG2); assay: Cell proliferation test, human liver cancer cells; type: cell-based; conditions: 2.5 μM and 25 μM, FIG. 10
Description: (§1) To see whether or not the astrocyte proliferation accelerating activity of the cyclic peptide derivative is a specific proliferative activity that is limited only to an astrocyte or it is based on a common cell proliferative activity, investigations were made by using normal human dermal fibroblasts (NHDF), human liver cancer cells (HepG2), and human leukemia cells (K562).
(§2) Seeding of each cell on a 96 well plate was carried out by adding 100 μl of a cell suspension in which normal human dermal fibroblasts are prepared at 2.5×10^4 cells/ml or human liver cancer cells and human leukemia cells are prepared at 5×10^4 cells/ml. Since the cyclic peptide derivative is added after dissolving it in PBS (−), only PBS (−) was added as a control.

[2] = test system: human leukemia cells (K562); assay: Cell proliferation test, human leukemia cells; type: cell-based; conditions: 2.5 μM and 25 μM, FIG. 10
Description: as §1, §2

## CCC1(C)Oc2cc(ccc2O)C(O)C(NC)C(=O)NC(C(C)C)C(=O)NC1C(=O)NC(CCC(=O)O)C(=O)O (centres unmarked) [cyclic peptide derivative]
[1]
  inhibitory activity on cell proliferation: a strong inhibitory activity on cell proliferation was observed
[2]
  inhibitory activity on cell proliferation: a strong inhibitory activity on cell proliferation was observed
